In series [1] the target is T1, STAT3 (Mus musculus, UniProt P42227). Briefly: Inhibition of STAT3 dimerization, EMSA assay. The series is classed as binding. Set-up: nuclear extracts were pre-incubated with compound for 30 minutes at room temperature prior to incubation with the radiolabeled probe; endogenous in cells; host or cells: nuclear extracts per the general EMSA method.
Series [2] concerns the target T1, STAT3. Briefly: Inhibition of STAT3 dimerization, EMSA assay. Format: binding. Also on record: endogenous in cells; host or cells: nuclear extracts per the general EMSA method.
The next series addresses T2, Stat3:3 (Mus musculus, UniProt P42227).
T2 construct: endogenous in cells; host or cells: NIH3T3/v-Src or EGF-stimulated NIH3T3/hEGFR mouse fibroblasts, nuclear extracts
Briefly: STATs DNA-binding activity in vitro, EMSA with hSIE probe. The settings on record: for IC50: Table 4, read-out: IC50 values for the inhibition of STATs DNA-binding activity in vitro, Stat3:3.

In another series the target is T3, Stat1:3 (Mus musculus, UniProt P42227).
T3 construct: endogenous in cells; host or cells: EGF-stimulated NIH3T3/hEGFR mouse fibroblasts, nuclear extracts
The series is described as above. As to conditions: Table 4; read-out: IC50 values for the inhibition of STATs DNA-binding activity in vitro, Stat1:3.

In another series the target is T4, Stat1:1 (Mus musculus, UniProt P42225).
T4 construct: endogenous in cells; host or cells: EGF-stimulated NIH3T3/hEGFR mouse fibroblasts, nuclear extracts
T4 sequence (P42225 2-749 limits assumed): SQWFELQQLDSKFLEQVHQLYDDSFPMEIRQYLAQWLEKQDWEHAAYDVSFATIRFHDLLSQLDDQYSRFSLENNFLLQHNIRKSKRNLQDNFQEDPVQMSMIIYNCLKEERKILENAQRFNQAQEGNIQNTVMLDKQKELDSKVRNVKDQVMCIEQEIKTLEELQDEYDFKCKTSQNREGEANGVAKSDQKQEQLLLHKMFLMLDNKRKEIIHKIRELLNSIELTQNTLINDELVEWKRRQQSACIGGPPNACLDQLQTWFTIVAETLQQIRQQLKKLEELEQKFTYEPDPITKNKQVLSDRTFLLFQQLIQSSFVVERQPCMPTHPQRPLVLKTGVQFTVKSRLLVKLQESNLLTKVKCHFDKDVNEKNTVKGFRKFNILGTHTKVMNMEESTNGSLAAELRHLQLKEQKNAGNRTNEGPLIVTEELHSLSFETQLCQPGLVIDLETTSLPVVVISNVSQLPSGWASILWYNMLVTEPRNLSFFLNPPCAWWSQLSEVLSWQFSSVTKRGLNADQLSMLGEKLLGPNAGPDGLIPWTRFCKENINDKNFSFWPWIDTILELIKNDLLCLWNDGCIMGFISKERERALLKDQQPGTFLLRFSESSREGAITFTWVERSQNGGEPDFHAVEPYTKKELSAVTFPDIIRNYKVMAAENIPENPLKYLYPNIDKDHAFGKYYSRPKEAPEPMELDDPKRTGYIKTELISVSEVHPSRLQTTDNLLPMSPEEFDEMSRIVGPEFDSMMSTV
Briefly: STATs DNA-binding activity in vitro, EMSA. As to conditions: Table 4; read-out: IC50 values for the inhibition of STATs DNA-binding activity in vitro, Stat1:1.

The next series concerns the target Stat5:5. The experiment in a line: STATs DNA-binding activity in vitro, EMSA with MGFe probe. Set-up: species or system mouse. As to conditions: Table 4; read-out: IC50 values for the inhibition of STATs DNA-binding activity in vitro, Stat5:5.

Molecules are shown by their SMILES. Read-outs that look alike come from different tables or passages of the source.

T3 sequence (P42227 2-770 limits assumed): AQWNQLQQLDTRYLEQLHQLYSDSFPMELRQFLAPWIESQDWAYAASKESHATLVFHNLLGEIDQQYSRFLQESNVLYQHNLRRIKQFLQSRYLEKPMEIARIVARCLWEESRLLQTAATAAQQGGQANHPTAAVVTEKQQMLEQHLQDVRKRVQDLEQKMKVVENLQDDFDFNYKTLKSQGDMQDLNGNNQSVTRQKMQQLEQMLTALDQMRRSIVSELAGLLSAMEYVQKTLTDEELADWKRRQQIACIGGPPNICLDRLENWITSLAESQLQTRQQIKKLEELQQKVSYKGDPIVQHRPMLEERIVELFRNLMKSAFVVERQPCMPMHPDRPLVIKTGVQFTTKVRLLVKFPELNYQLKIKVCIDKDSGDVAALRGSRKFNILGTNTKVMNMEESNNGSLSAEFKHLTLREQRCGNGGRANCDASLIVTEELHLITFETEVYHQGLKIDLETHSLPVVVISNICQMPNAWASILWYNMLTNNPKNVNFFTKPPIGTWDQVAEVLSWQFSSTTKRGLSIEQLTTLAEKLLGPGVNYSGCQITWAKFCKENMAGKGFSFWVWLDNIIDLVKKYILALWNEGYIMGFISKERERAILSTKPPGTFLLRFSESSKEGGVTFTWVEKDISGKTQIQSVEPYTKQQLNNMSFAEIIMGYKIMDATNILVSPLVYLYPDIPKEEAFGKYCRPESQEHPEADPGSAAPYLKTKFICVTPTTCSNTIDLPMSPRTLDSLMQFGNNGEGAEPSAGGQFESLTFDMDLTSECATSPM
T2 sequence (P42227 2-770 limits assumed): as above
T1 sequence (P42227 2-770 limits assumed): as above

As for `O=C(COS(=O)(=O)c1ccc(-c2ccccc2)cc1)Nc1ccc(C(=O)O)c(O)c1` [Compound 19], the IC50 on STAT3 [1] is more than 500 µM.
With `O=C(CNS(=O)(=O)c1ccc(-c2ccccc2)cc1)Nc1ccc(C(=O)O)c(O)c1` [Compound 21], the IC50 at STAT3 [1] is more than 500 µM.
For the compound `CCOC(=O)c1ccc(NC(=O)CC(CNS(=O)(=O)c2ccc(Oc3ccccc3)cc2)c2ccc(Cl)cc2)cc1` (centres unmarked) [Compound 37], the half-inhibitory concentration (IC50) at STAT3 [1] was more than 500 µM.
With `CCOC(=O)c1ccc(NC(=O)CC(CNS(=O)(=O)c2ccc(C)cc2)c2ccc(Cl)cc2)cc1` (centres unmarked) [Compound 38, Ethyl 4-(3-(4-chlorophenyl)-4-(4-methylphenylsulfonamido)butanamido)benzoate], the melting point was 187 to 189 °C.
Still for that read-out and setting: the result for `CCOC(=O)c1ccc(NC(=O)CC(CNS(=O)(=O)c2ccc(Oc3ccccc3)cc2)c2ccccc2)cc1` (centres unmarked) [Compound 56, Ethyl 4-(4-(4-phenoxyphenylsulfonamido)-3-phenylbutanamido)benzoate] reads 147 to 149 °C; that for `CCOC(=O)c1ccc(NC(=O)CC(CNS(=O)(=O)c2ccc(Oc3ccccc3)cc2)c2ccc3ccccc3c2)cc1` (centres unmarked) [Compound 58, Ethyl 4-(3-(naphthalen-2-yl)-4-(4-phenoxyphenylsulfonamido)butanamido)benzoate], 141 to 143 °C.
For the compound `O=C(CC(CNS(=O)(=O)c1ccc(Oc2ccccc2)cc1)c1ccccc1)Nc1ccc(C(=O)O)cc1` (centres unmarked) [Compound 60, 4-(4-(4-phenoxyphenylsulfonamido)-3-phenylbutanamido)benzoic acid], the melting point fell in the range of 187 to 189 °C. Moreover, the IC50 against STAT3 [2] was more than 500 µM.
For `O=C(CC(CNS(=O)(=O)c1ccc(Oc2ccccc2)cc1)c1ccc2ccccc2c1)Nc1ccc(C(=O)O)cc1` (centres unmarked) [Compound 61, 4-(3-(naphthalen-2-yl)-4-(4-phenoxyphenylsulfonamido)butanamido)benzoic acid], the melting point is 183 to 184 °C.
As for `O=C(CC(CNS(=O)(=O)c1ccc(Oc2ccccc2)cc1)c1ccc2ccccc2c1)Nc1ccc(C(=O)O)c(O)c1` (centres unmarked) [Compound 65, 2-hydroxy-4-(3-(naphthalen-2-yl)-4-(4-phenoxyphenylsulfonamido)butanamido)benzoic acid], the melting point was 153 to 155 °C. Also, the half-inhibitory concentration (IC50) against STAT3 [2] was more than 500 µM.
For `CCOC(=O)c1ccc(NC(=O)CCc2ccccc2)cc1` [Compound 70, Ethyl 4-(3-phenylpropanamido)benzoate], the melting point lay in the range of 109 to 111 °C. Moreover, the IC50 against STAT3 [2] was more than 500 µM.
The corresponding values for `O=C(CCc1ccc2ccccc2c1)Nc1ccc(C(=O)O)cc1` [Compound 71, 4-(3-(Naphthalen-2-yl)propanamido)benzoic acid] are 255 to 257 °C and more than 500 µM.
In the case of `CC(C)NC(=O)c1cc(NC(=O)c2ccc(C(=O)Nc3cc(C(=O)NC(C)C)cc(C4=NCCN4)c3)cc2)cc(C2=NCCN2)c1` [NSC 101595], the IC50 at Stat3:3 is 275 µM; at Stat1:3, more than 300 µM; at Stat1:1 it was more than 300 µM; at Stat5:5, 288 µM.
As to `O=C(O)c1cc(N=C2C=CC(=C(c3ccccc3)c3ccc(Nc4ccc(Cl)c(C(=O)O)c4)cc3)C=C2)ccc1Cl` [NSC 117907], the IC50 was 202 µM on Stat3:3, 292 µM at Stat1:3, more than 300 µM on Stat1:1 and more than 300 µM at Stat5:5.
As to `O=C(/C=C/c1ccccc1)NC(=S)Nc1ccc(C(=O)O)cc1` [NSC 205965], the IC50 on Stat3:3 came to 225 µM; at Stat1:3, 256 µM; on Stat1:1 it was 253 µM; at Stat5:5, 255 µM.
The corresponding values for `CCCCCCCCCCCC(=O)NC(=S)Nc1ccc(C(=O)O)cc1` [NSC 216360] are 220 µM, 290 µM, more than 300 µM and more than 300 µM.
In the case of `CCOc1cccc2c(NCCCCCCCCNc3c4ccccc4nc4c(OCC)cccc34)c3ccccc3nc12` [NSC 263435], the “inhibition of Stat3 DNA-binding activity, in words” value on Stat3:3 is “notable potent inhibitors”. Also, the IC50 on Stat3:3 was 25 µM; at Stat1:3, 40 µM; at Stat1:1, 50 µM; at Stat5:5, 25 µM.
For `N#Cc1cc([N+](=O)[O-])ccc1NC(=O)C(=O)Nn1c(=S)[nH]c2ccccc2c1=O` [NSC 645885], the IC50 on Stat3:3 worked out at 245 µM; on Stat1:3, 250 µM; on Stat1:1 it was 205 µM; on Stat5:5 it was 250 µM.
As to `CC(=O)NNc1nc(C)c(C(/C=C/c2cccc([N+](=O)[O-])c2)=N/NC(=S)NN)s1` [NSC 647608], the IC50 at Stat3:3 was 295 µM; at Stat1:3, more than 300 µM; on Stat1:1, more than 300 µM; at Stat5:5, more than 300 µM.

The values above are taken from patent US9604923B2 (H. LEE MOFFITT CANCER CENTER AND RESEARCH INSTITUTE, INC., priority 2006, dated 2017).
